The nature of data set [1]: log P determination by HPLC on reverse-phase column (C 18), EEC Directive 79/831 Annex V.A8. Format: physicochemical. To be noted: 43° C.; for chromatographic logP: reverse-phase HPLC column (C 18). How it is done:
The determination is carried out in the acidic range at pH 2.3 using the mobile phases 0.1% aqueous phosphoric acid and acetonitrile; linear gradient from 10% acetonitrile to 90% acetonitrile.

[2] abbreviates: pH 2.3, pH 2.3, preparation example, 0.1% aqueous phosphoric acid/acetonitrile gradient, read-out: HPLC: log P (pH 2.3).

Where two headings read alike, the source gives them in different places.

For orientation: melting point means the temperature, or range, at which the solid turns liquid.

On to `O=C(CCC(Cl)c1ccc(Br)cc1)c1c(F)cccc1F` (stereo not drawn) [III-1, 4-(4-bromophenyl)-4-chloro-1-(2,6-difluorophenyl)-1-butanone], for which the chromatographic logP in data set [1] (pH 2.3, haloketones of the formula (III), acidic range pH 2.3, read-out: logP*) was 4.43; in data set [1] (setting [2]), 4.52.

Molecule `O=C(/C=C/c1ccc(Br)cc1)c1c(F)cccc1F` [VI-1, (2E)-3-(4-bromophenyl)-1-(2,6-difluorophenyl)-2-propen-1-one] came in with a melting point of 71 °C.

In turn, `Fc1cccc(F)c1C1=NC(c2ccc(Br)cc2)CC1` (stereo not drawn) [Example I-1, 2-(4-bromophenyl)-5-(2,6-difluorophenyl)-3,4-dihydro-2H-pyrrole] came in with a melting point of 48 °C. In data set [1] (pH 2.3, preparation example, 0.1% aqueous phosphoric acid/acetonitrile gradient), the “HPLC: log P (pH 2.3)” value is given as 2.71. The chromatographic logP in data set [1] (setting [2]) is 2.72.

`O=C(c1c(F)cccc1F)C1CC1c1ccc(Br)cc1` (stereo not drawn) [Example V-1, [2-(4-bromophenyl)cyclopropyl](2,6-difluorophenyl)methanone] displayed a melting point of 64 to 65 °C. As to `[N-]=[N+]=NC(CCC(=O)c1c(F)cccc1F)c1ccc(Br)cc1` (stereo not drawn) [II-1, 4-(4-bromophenyl)-4-azido-1-(2,6-difluorophenyl)-1-butanone], the chromatographic logP in data set [1] (pH 2.3, azides of the formula (II), acidic range pH 2.3, read-out: logP*) is 4.47; in data set [1] (setting [2]) it was 4.47.
